Laboratory results: PubChem BioAssay AID190 (DTP/NCI, 2004)
“And” between values parts separate entries of the source, which are not always exact repeats. Equal values may be shown once. Inconclusive results and toxic doses are left out. The calls were made as follows: active = survival T/C of 150% or more; inactive = T/C below 125% in these data.

System: AKR/Lw mice, AKR lymphoma ip, median survival T/C
Experiment: NCI In Vivo Anticancer Drug Screen. Data for tumor model Lymphoma AKR (Transplanted) (intraperitoneal) in AKR/Lw mice
Details: endpoint: median survival time, higher = longer survival
Protocol: The antitumor activity of compounds was measured in mice bearing transplantable tumors. Survival or tumor size were measured and the results are expressed as the measurement made in the treated group (T) divided by the measurement made in the vehicle treated control group (C). The tumor model used in this assay is Lymphoma AKR (Transplanted) (intraperitoneal) in AKR/Lw mice

[1] = dose: 100.0 mg/kg/injection, schedule: Q01DX001 (ip), vehicle: saline
[2] = dose: 25.0 mg/kg/injection, schedule: Q01DX001 (ip), vehicle: saline
[3] = dose: 50.0 mg/kg/injection, schedule: Q01DX001 (ip), vehicle: saline
[4] = dose: 100.0 mg/kg/injection, schedule: Q01DX001 (ip), vehicle: Klucel (hydroxypropylcellulose) (HPC)
[5] = dose: 200.0 mg/kg/injection, schedule: Q01DX001 (ip), vehicle: Klucel (hydroxypropylcellulose) (HPC)
[6] = dose: 400.0 mg/kg/injection, schedule: Q01DX001 (ip), vehicle: Klucel (hydroxypropylcellulose) (HPC)

Measured: T/C

NC(=O)NO
inactive: dose: 15.6 mg/kg/injection, schedule: Q06HX012 (ip), vehicle: saline 93 % of control | dose: 15.6 mg/kg/injection, schedule: Q06HX016 (ip), vehicle: saline 96 % of control | dose: 25.0 mg/kg/injection, schedule: Q06HX012 (ip), vehicle: saline 100 % of control | dose: 31.25 mg/kg/injection, schedule: Q06HX012 (ip), vehicle: saline 96 % of control | dose: 50.0 mg/kg/injection, schedule: Q01DX009 (ip), vehicle: saline 94 % of control | dose: 50.0 mg/kg/injection, schedule: Q06HX012 (ip), vehicle: saline 100 % of control | dose: 62.5 mg/kg/injection, schedule: Q06HX004 (ip), vehicle: saline 92 % of control and 100 % of control | dose: 62.5 mg/kg/injection, schedule: Q06HX008 (ip), vehicle: saline 93 % of control | dose: 62.5 mg/kg/injection, schedule: Q06HX012 (ip), vehicle: saline 93 % of control | dose: 62.5 mg/kg/injection, schedule: Q06HX016 (ip), vehicle: saline 100 % of control | dose: 75.0 mg/kg/injection, schedule: Q06HX012 (ip), vehicle: saline 96 % of control | dose: 100.0 mg/kg/injection, schedule: Q06HX008 (ip), vehicle: saline 92 % of control | dose: 100.0 mg/kg/injection, schedule: Q06HX012 (ip), vehicle: saline 88 % of control

COc1ccc(/C=C2\CCC3C(=O)CCCC3(C)C2=O)cc1 (stereo not drawn)
inactive: [1] 90 % of control | dose: 200.0 mg/kg/injection, schedule: Q01DX001 (ip), vehicle: saline 100 % of control | dose: 400.0 mg/kg/injection, schedule: Q01DX001 (ip), vehicle: saline 97 % of control

CCCN(CCC)CC(C)=O
inactive: dose: 11.0 mg/kg/injection, schedule: Q01DX001 (ip), vehicle: saline 106 % of control | dose: 17.0 mg/kg/injection, schedule: Q01DX001 (ip), vehicle: saline 103 % of control | [2] 100 % of control | dose: 37.5 mg/kg/injection, schedule: Q01DX001 (ip), vehicle: saline 100 % of control | [3] 115 % of control | [1] 105 % of control and 110 % of control

CCCn1c(=S)[nH]c2ccccc2c1=O
inactive: [4] 103 % of control | [5] 94 % of control | [6] 100 % of control

CN(C)C(C)(C)CNc1ccc(C(=O)O)cc1
inactive: [2] 88 % of control | [3] 91 % of control and 95 % of control | [1] 97 % of control and 91 % of control

ClC1=C(Cl)C2(Cl)C3COCC3C1(Cl)C2(Cl)Cl (stereo not drawn)
inactive: [4] 100 % of control | [5] 93 % of control | [6] 91 % of control

COc1cc([C@@H]2c3cc4c(cc3[C@H](O)[C@H]3COC(=O)[C@@H]23)OCO4)cc(OC)c1OC
inactive: dose: 6.0 mg/kg/injection, schedule: Q01DX009 (ip), vehicle: Klucel (hydroxypropylcellulose) (HPC) 110 % of control | dose: 12.0 mg/kg/injection, schedule: Q01DX009 (ip), vehicle: Klucel (hydroxypropylcellulose) (HPC) 120 % of control
